According to patent US12116388B2, “Amylin receptor agonists” (Novo Nordisk A/S, priority 2022, dated 2024):
Starred links: 1 amine or outer side, 2 acyl side, 3 side chain; linkers in the order of their positions; H or OH if unused. Residues, ends and D or L forms follow the SMILES beside them. Groups on a side chain read outwards from the residue. *: point of attachment. C18 diacid = O=C(O)CCCCCCCCCCCCCCCCC(=O)*; γGlu = O=C(O)[C@H](CCC(=O)[*:2])N[*:1]

Experiments:
[1] = target: T1, human calcitonin receptor (hCTR) (Homo sapiens, UniProt P30988); assay: Human calcitonin receptor (hCTR) in vitro potency assay, CRE-luciferase reporter in BHK cells; format: cell-based; conditions: BHK hCTR/CRE-Luc cells, 3 hours incubation, assay buffer with 1% ovalbumin; read-out: hCalcR potency, EC50
T1 construct: host or cells: BHK (Baby Hamster Kidney), Hollex-1 cell line
T1 sequence (P30988 25-474): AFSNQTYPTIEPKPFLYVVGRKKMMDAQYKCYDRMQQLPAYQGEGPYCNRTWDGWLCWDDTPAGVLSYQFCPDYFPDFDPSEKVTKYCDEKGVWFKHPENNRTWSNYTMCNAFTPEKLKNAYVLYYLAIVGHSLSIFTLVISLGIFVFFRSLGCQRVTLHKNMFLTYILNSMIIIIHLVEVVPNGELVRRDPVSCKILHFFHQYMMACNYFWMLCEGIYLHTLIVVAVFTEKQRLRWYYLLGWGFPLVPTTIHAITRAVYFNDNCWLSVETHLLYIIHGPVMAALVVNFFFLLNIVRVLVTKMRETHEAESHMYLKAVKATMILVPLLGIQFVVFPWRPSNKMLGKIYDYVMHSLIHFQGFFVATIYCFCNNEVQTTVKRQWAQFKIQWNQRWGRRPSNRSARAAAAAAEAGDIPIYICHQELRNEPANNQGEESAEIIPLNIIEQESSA
In short: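 BHK cells stably co-expressing human calcitonin receptor and a CRE-luciferase reporter, seeded the day before, were exposed to 7-fold serial dilutions (7 concentrations, often starting near 10 nM) in DMEM/HEPES/1% ovalbumin buffer for 3 h at 37 °C. Luminescence was then read after SteadyLite Plus addition.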

[2] = tested on: Sprague Dawley (SD) rats; assay: Acute food intake in ad libitum fed rat model; format: in vivo; conditions: single s.c. administration, negative value = reduced food intake
Experimental: Lyophilised compound was dissolved in vehicle, 8 mM phosphate, 250 mM glycerol, 0.007% polysorbate 20, and pH was adjusted to 7.4 with 1N NaOH.
Normal weight Sprague Dawley (SD) rats from Taconic Europe, Denmark, were used for the acute food intake studies. The purpose of these studies was to test in vivo effect on food intake and to provide an indication of the compounds' duration of action. Experiments were conducted with permission from the Danish Animal Experiments Inspectorate and were performed in accordance with the guidelines of the Danish legislation governing animal experimentation (1987) as well as the National Institutes of Health (publication number 85-23) and the European Convention for the Protection of Vertebrate Animals used for Experimental and other Scientific Purposes (Council of Europe No 123, Strasbourg 1985).
Prior to study start, rats were acclimatized to the experimental settings for 14 days. During this period, the animals were handled at least 2 times. Immediately upon arrival, rats were put on a reversed light cycle (dark from 10 am-10 pm or 11 am-11 pm) and were transferred into one of three following food intake measuring systems: FeedWin, BioDaq or HM2. Rats were single housed in the FeedWin and BioDaq system and were housed three a cage in the HM2 system (rats were in this case ID-chipped). During the acclimatization period, in which the rats get used to the new light cycle and diet, the animals had free access to food and water. […] Each amylin analogue was tested in a group of 5-6 rats. A vehicle group of 5-6 rats was included in each experiment and were used as reference point. […] The time of dosing was recorded for each rat.
After dosing, rats were returned to their home cages, where they had access to food and water. Food consumption was recorded individually and continuously by on-line registration for up to 72 h post dosing. At the end of the experiment, body weight was measured again, and animals were euthanized by CO2 overdose.

CC[C@H](C)[C@H](NC(=O)[C@H](CCCCNC(=O)CC[C@H](NC(=O)CCCCCCCCCCCCCCCCC(=O)O)C(=O)O)NC(=O)CNC(=O)[C@H](Cc1ccccc1)NC(=O)[C@H](CC(N)=O)NC(=O)[C@H](CC(=O)O)NC(=O)[C@H](CO)NC(=O)[C@H](CO)NC(=O)[C@H](Cc1c[nH]cn1)NC(=O)[C@H](Cc1c[nH]cn1)NC(=O)[C@H](CC(C)C)NC(=O)[C@H](Cc1ccccc1)NC(=O)[C@H](CCC(=O)O)NC(=O)[C@H](C)NC(=O)[C@H](CC(C)C)NC(=O)[C@H](CCCNC(=N)N)NC(=O)[C@H](C)NC(=O)[C@@H](NC(=O)[C@H](CCC(N)=O)NC(=O)[C@H](C)NC(=O)[C@@H](NC(=O)[C@H](CO)NC(=O)[C@H](CC(C)C)NC(=O)[C@H](Cc1c[nH]cn1)NC(=O)[C@H](CO)NC(=O)[C@H](C)NC(C)=O)[C@@H](C)O)[C@@H](C)O)C(=O)N[C@@H](CC(C)C)C(=O)N1CCC[C@H]1C(=O)N1CCC[C@H]1C(=O)N[C@H](C(=O)N[C@@H](CC(=O)O)C(=O)N[C@H](C(=O)NCC(=O)N[C@@H](CO)C(=O)N[C@@H](CC(N)=O)C(=O)N[C@H](C(=O)N1CCC[C@H]1C(N)=O)[C@@H](C)O)C(C)C)[C@@H](C)O [Compound 41, N^1-acetyl,N{Epsilon-25}-[(4S)-4-carboxy-4-(17-carboxyheptadecanoylamino)butanoyl]-[Ala1,Ser2,His3,Leu4,Ser5,Ala7,Gln8,Ala10,Glu14,His17,Asp21,Lys25,Pro28,Pro29,Asp31,Pro37]-human amylin] (Ac-ASHLSTAQTARLAEFLHHSSDNFGK([γGlu-C18 diacid])ILPPTDVGSNTP-NH2)
EC50 [1]: 1.16 pM
Food intake relative to vehicle (%) 0-24 hr, 3 nmol/kg ([2]; 0-24 hr): −88%
Food intake relative to vehicle (%) 24-48 hr, 3 nmol/kg ([2]; 24-48 hr): −76%
Food intake relative to vehicle (%) 48-72 hr, 3 nmol/kg ([2]; 48-72 hr): −15%
